Laboratory results taken from ChEMBL document CHEMBL3098037, “Evaluation of benzoic acid derivatives as sirtuin inhibitors” (Bioorg Med Chem Lett, 2014).
Values after ≈ are worked out from the molar mass of the structure shown. Active and inactive are the calls of the source. No cut-off for these calls is given here.

Key:
Saccharomyces cerevisiae [1] = experiment: Inhibition of Sir2p in yeast DMY2844 assessed as growth inhibition at 800 uM after 48 hrs
Saccharomyces cerevisiae [2] = experiment: Inhibition of Sir2p in yeast DMY2844 assessed as growth inhibition after 48 hrs
[3] = target: T1, NAD-dependent protein deacetylase sirtuin-2 (Homo sapiens) (UniProt Q8IXJ6); experiment: Inhibition of SIRT2 (unknown origin) at 1.6 mM by fluorescence assay
T1 sequence (whole entry): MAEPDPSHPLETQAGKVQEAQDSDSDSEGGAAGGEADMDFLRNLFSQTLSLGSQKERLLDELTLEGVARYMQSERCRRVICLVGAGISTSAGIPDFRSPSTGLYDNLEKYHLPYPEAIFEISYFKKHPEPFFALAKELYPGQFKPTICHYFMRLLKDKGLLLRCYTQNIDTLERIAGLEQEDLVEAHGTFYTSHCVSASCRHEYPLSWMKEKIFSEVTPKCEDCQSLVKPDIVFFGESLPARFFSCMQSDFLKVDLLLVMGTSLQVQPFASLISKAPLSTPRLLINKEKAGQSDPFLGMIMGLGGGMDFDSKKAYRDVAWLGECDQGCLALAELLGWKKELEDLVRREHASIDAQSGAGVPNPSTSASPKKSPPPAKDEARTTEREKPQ

[4] = target: T2, NAD-dependent protein deacetylase sirtuin-1 (Homo sapiens) (UniProt Q96EB6); experiment: Inhibition of SIRT1 (unknown origin) at 1.6 mM by fluorescence assay
T2 sequence (whole entry): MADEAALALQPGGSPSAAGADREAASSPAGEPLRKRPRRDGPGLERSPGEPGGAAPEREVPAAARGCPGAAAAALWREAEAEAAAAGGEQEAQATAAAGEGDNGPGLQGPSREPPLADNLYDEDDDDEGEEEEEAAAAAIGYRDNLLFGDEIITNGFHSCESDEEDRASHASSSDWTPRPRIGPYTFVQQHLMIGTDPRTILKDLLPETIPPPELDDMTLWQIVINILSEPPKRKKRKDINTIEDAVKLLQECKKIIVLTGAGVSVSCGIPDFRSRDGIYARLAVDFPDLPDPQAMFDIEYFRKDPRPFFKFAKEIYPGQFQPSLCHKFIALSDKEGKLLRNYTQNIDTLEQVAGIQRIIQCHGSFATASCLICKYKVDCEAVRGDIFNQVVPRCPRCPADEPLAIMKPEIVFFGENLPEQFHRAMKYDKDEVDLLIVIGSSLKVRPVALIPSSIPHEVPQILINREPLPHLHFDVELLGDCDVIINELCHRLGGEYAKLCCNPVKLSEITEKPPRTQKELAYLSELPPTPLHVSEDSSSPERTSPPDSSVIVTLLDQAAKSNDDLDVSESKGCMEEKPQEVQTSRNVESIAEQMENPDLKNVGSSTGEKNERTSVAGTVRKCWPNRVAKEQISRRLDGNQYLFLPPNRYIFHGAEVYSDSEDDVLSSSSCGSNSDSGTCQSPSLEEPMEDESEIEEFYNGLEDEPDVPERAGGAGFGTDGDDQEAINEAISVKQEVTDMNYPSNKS

[5] = Cytotoxicity against human MIAPaCa2 cells; format: functional, cell-based; conditions: MIA PaCa-2
NCI-H460 = experiment: Cytotoxicity against human NCI-H460 cells; format: functional, cell-based
A549 = experiment: Cytotoxicity against human A549 cells; format: functional, cell-based
DU-145 = experiment: Cytotoxicity against human DU145 cells; format: functional, cell-based

| Structure (SMILES) | inhibition (Saccharomyces cerevisiae [1]) | MIC (Saccharomyces cerevisiae [2]) | other results |
| --- | --- | --- | --- |
| CN(C)c1ccc(Br)cc1 | inactive |  |  |
| Cc1ccc(C(=O)O)cc1 |  | 800 µM (≈ 109 µg/mL) |  |
| COC(=O)c1ccc(N(C)C)cc1 |  | 400 µM (≈ 71.7 µg/mL) |  |
| CN(C)c1ccccc1C(=O)O | inactive |  |  |
| O=C(O)c1ccccc1 | inactive |  |  |
| CC(C)(C)c1ccc(C(=O)O)cc1 |  | 50 µM (≈ 8.91 µg/mL) | inhibition [3]: 28%; inhibition [4]: 54.8% |
| C[N+](C)(C)c1ccc(C(=O)[O-])cc1 | inactive |  |  |
| CC[n+]1c(C=CC=C2N(C)c3ccccc3C2(C)C)sc2ccccc21 |  |  | IC50 [5]: 10 nM; IC50 (NCI-H460): 10 nM; IC50 (A549): 10 nM; IC50 (DU-145): 10 nM |
| CN(C)c1ccccc1 | inactive |  |  |
| CN(C)c1ccc(C(=O)O)cc1 |  | 200 µM (≈ 33 µg/mL) | inhibition [3]: 30.3%; inhibition [4]: 25.3% |
| CNc1ccc(C(=O)O)cc1 |  | 400 µM (≈ 60.5 µg/mL) |  |
| CN(C)c1ccc(S(=O)(=O)O)cc1 | inactive |  |  |
| CN(C)c1ccc(C(N)=O)cc1 | inactive |  |  |
| CC(C)c1ccc(C(=O)O)cc1 |  | 200 µM (≈ 32.8 µg/mL) |  |
| Nc1ccc(C(=O)O)cc1 |  | 800 µM (≈ 110 µg/mL) |  |
| CN(C)c1cccc(C(=O)O)c1 | inactive |  |  |
| CN(C)c1ccc([N+](=O)[O-])cc1 | inactive |  |  |
